Literature values as cited in PMC4630399, “Charge-Based Inhibitors of Amylin Fibrillization and Toxicity” (Journal of Diabetes Research, 2015).
“Also recorded” adds a separate entry of the source. No end group written: not given here.

Experiments:
[1] = parameters: method as in 2 sources, ref 21 = [21]; PMID 23016872; doi:10.1021/bi300574r; 21 Marek P. J. Patsalo V. Green D. F. Raleigh D. P. Ionic strength effects on amyloid formation by amylin are a complicated interplay among debye screening, ion selectivity, and hofmeister effects Bio ||| ref 7 = [7]; PMID 22206987; doi:10.1016/j.jmb.2011.12.032; 7 Cao P. Tu L.-H. Abedini A. Sensitivity of amyloid formation by human islet amyloid polypeptide to mutations at residue 20 Journal of Molecular Biology 2012 421 2-3 282 295 10.1016/j.jmb.2011.12.032; conditions: compared to WT-amylin; cited from earlier work
Description: In type 2 diabetes, the positively charged 37-residue hormone amylin misfolds into cationic fibrils which have been implicated in the destruction of the pancreatic β-cells that make insulin and amylin, thus contributing to pathology. Amylin is a particularly favorable system for investigating the roles of charges in fibrillization, since the core of the intermolecular β-sheet fibril structure has only one pH-titratable group, His18 [9].

WT-amylin fibrillization = conditions: added in trans; cited from earlier work
Description: In type 2 diabetes, the positively charged 37-residue hormone amylin misfolds into cationic fibrils which have been implicated in the destruction of the pancreatic β-cells that make insulin and amylin, thus contributing to pathology. Amylin is a particularly favorable system for investigating the roles of charges in fibrillization, since the core of the intermolecular β-sheet fibril structure has only one pH-titratable group, His18 [9]. The histidine acts as an electrostatic switch, inhibiting fibrillization in its charged state at acidic pH and favoring fibrillization in its uncharged ... || An IC50 analysis of the inhibition data was performed to obtain quantitative information (Figure 5). The Arg-1 concentration-dependence for the inhibition of WT-amylin fibril elongation rates gives an IC50 value of 0.6 ± 0.5 μM. For Arg-2 and Mem-T, the IC50 values are ~10 μM (Figure 5(a)). In addition to effecting elongation rates, Arg-2 increases the lag times for WT-amylin fibrillization with an IC50 of ~0.1 μM. […] Moreover, addition of a single charged lysine residue ...

S20K: amylin with the S20K mutation (KCNTATCATQRLANFLVHSKNNFGAILSSTNVGSNTY; not fully specified (C-terminus); ends and bridges not checked; UniProt P10997 34-70, looked up, variant S20K)
fibrillization of mutant amylin [1]: much slower fibrillization; also recorded: fibrillizes much more slowly
inhibition of WT-amylin fibrillization (WT-amylin fibrillization): inhibit fibrillization of the WT-amylin peptide; also recorded: inhibits fibrillization of WT-amylin when added in trans
